Results reported in ChEMBL document CHEMBL6087404, “Naphthoindole-2-carboxamides as a lipophilic chemotype of hetarene-anthraquinones potent against P-gp resistant tumor cells” (Eur J Med Chem, 2025).
Calls of active or inactive are those of the source. The calls are words filed in the database; no cut-off is given here.

Legend:
K562/4 [1] = test: Induction of apoptosis in human K562/4 cells assessed as viable cells at 1 uM incubated for 48 hrs by Annexin V-FITC/PI staining based flow cytometry (reference value: 10.8 %); assay type: functional; settings: read-out: Activity
K562 [2] = test: Antiproliferative activity against human K562 cells incubated for 72 hrs by MTT assay; assay type: functional, cell-based; settings: K562, 72 h
[3] = Antiproliferative activity against hFB-hTERT6 cells incubated for 72 hrs by MTT assay; assay type: toxicity, cell-based; settings: human
[4] = Drug uptake in human HCT-116 cells at 3 uM incubated for 10 mins by confocal microscopy; assay type: ADME, cell-based; settings: hct-116, 10 min
K562 [5] = test: Effect on cell cycle distribution in human K562 cells assessed as cells with fragmented DNA at sub-G1 phase at 0.75 uM incubated for 24 hrs by PI staining based flow cytometry (reference value: 3 %); assay type: functional
K562/4 [6] = test: Effect on cell cycle distribution in human K562/4 cells assessed as cells with fragmented DNA at sub-G1 phase at 1 uM incubated for 24 hrs by PI staining based flow cytometry (reference value: 4 %); assay type: functional
K562/4 [7] = test: Induction of apoptosis in human K562/4 cells assessed as viable cells at 1 uM incubated for 24 hrs by Annexin V-FITC/PI staining based flow cytometry (reference value: 86 %); assay type: functional; settings: read-out: Activity
K562/4 [8] = test: Induction of apoptosis in human K562/4 cells assessed as late apoptotic cells at 1 uM incubated for 48 hrs by Annexin V-FITC/PI staining based flow cytometry (reference value: 2.5 %); assay type: functional
K562/4 [9] = test: Induction of apoptosis in human K562/4 cells assessed as viable cells at 1 uM incubated for 48 hrs by Annexin V-FITC/PI staining based flow cytometry (reference value: 86 %); assay type: functional; settings: read-out: Activity
K562 [10] = test: Induction of apoptosis in human K562 cells assessed as necrotic cells at 1 uM incubated for 24 hrs by Annexin V-FITC/PI staining based flow cytometry (reference value: 10.8 %); assay type: functional
[11] = Drug uptake in P-gp+ human […] cells at 3 uM incubated for 10 mins by confocal microscopy; assay type: ADME, cell-based; settings: k562/4, 10 min
K562/4 [12] = test: Induction of apoptosis in human K562/4 cells assessed as early apoptotic cells at 1 uM incubated for 48 hrs by Annexin V-FITC/PI staining based flow cytometry (reference value: 1 %); assay type: functional
[13] = target: T1, DNA topoisomerase 1 (Homo sapiens) (UniProt P11387); test: Inhibition of Top1 (unknown origin)-mediated unwinding of supercoiled DNA at 5 uM incubated for 30 mins by electrophoretic analysis
T1 sequence (whole entry): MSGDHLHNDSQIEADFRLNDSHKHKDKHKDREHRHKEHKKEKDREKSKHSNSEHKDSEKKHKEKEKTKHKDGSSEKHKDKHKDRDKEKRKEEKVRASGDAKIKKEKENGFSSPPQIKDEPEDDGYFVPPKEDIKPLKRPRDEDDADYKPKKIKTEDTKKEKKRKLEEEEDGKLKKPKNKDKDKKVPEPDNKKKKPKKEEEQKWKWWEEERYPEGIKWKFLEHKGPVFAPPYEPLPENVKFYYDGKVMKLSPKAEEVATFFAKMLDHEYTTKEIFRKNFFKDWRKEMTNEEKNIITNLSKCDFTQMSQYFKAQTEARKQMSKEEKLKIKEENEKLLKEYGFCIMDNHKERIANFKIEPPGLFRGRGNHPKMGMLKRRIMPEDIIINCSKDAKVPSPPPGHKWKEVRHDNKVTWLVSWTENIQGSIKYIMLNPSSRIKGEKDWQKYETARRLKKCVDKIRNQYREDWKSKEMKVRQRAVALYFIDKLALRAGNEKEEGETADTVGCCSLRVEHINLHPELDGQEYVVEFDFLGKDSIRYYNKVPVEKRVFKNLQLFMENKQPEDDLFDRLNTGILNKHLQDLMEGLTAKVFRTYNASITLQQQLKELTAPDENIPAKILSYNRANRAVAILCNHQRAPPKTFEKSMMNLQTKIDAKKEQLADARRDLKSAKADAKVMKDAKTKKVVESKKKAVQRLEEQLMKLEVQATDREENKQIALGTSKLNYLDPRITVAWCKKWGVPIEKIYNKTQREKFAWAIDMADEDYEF

[14] = Drug uptake in mitochondria of human HCT-116 cells at 3 uM incubated for 1 hr by MitoTracker Red FM dye based confocal microscopy; assay type: ADME; settings: hct-116, 1 h

IC50 (K562 [2]): 500 nM | Drug uptake [4]: Active | Drug uptake [11]: Active | inhibition [13]: Active | Drug uptake [14]: Active
Compound: CS(=O)(=O)O.N[C@H]1CCN(C(=O)c2cc3c(O)c4c(c(O)c3[nH]2)C(=O)c2ccccc2C4=O)C1
viability at 1 µM (K562/4 [1]): 79% | IC50 at 72 h [3]: 4200 nM | Activity (K562 [5]): 21% | Activity (K562/4 [6]): 30% | viability at 1 µM (K562/4 [7]): 30.1% | Activity (K562/4 [8]): 17.5% | viability at 1 µM (K562/4 [9]): 3.4% | Activity (K562 [10]): 46.2% | Activity (K562/4 [12]): 0.1%
